The text below walks through data of ChEMBL document CHEMBL4184182, “Studies on interactions of carbazole derivatives with DNA, cell image, and cytotoxicity” (Bioorg Med Chem, 2018).

The subject of data set [1] is dsDNA. Briefly: Binding affinity to 26-mer duplex DNA (unknown origin) assessed as compound fluorescence life time at 5 uM after 5 mins by fluorescence titration method (reference value: 3.626 nanoseconds). The format is nucleic-acid assay.
Data set [2] deals with HepG2. In words: Induction of morphological changes in human HepG2 cells assessed as cellular clumping at 10 uM after 24 hrs. The format is functional, cell-based.
Data set [3] in a line: Drug uptake in RNase-A treated human HepG2 cell cytoplasm at 10 uM after 2.5 hrs by confocal microscopic method. The format is ADME, subcellular. The note with it: hepg2, 2.5 h.
In data set [4] the test system is Quadruplex DNA. In words: Binding affinity to human telomeric G-quadruplex DNA assessed as hyperchromicity at 15 uM after 5 mins in presence of potassium ion by UV-Visible absorbance titration method. The format is nucleic-acid assay.
For data set [5], the system named is Quadruplex DNA. In words: Binding affinity to c-Kit G-quadruplex DNA (unknown origin) assessed as compound fluorescence life time at 5 uM after 5 mins by fluorescence titration method (reference value: 3.626 nanoseconds). The format is nucleic-acid assay.
Data set [6] concerns Quadruplex DNA. In words: Binding affinity to Bcl2 G-quadruplex DNA (unknown origin) assessed as enhanced fluorescence time at 5 uM after 5 mins by fluorescence titration assay relative to control. The format is nucleic-acid assay.
Data set [7] has as its system Quadruplex DNA. In words: Binding affinity to human telomeric G-quadruplex DNA assessed as red shift at 15 uM after 5 mins in presence of sodium ion by UV-Visible absorbance titration method. The format is nucleic-acid assay.
Data set [8] relates to Quadruplex DNA. Briefly: Binding affinity to c-Kit G-quadruplex DNA (unknown origin) assessed as enhanced fluorescence time at 5 uM after 5 mins by fluorescence titration assay relative to control. The format is nucleic-acid assay.
Data set [9] relates to Quadruplex DNA. In words: Binding affinity to human telomeric G-quadruplex DNA assessed as hyperchromicity at 15 uM after 5 mins in presence of sodium ion by UV-Visible absorbance titration method. The format is nucleic-acid assay.
Data set [10] can be described thus: Selectivity ratio of DC50 for 26-mer duplex DNA (unknown origin) to DC50 for human telomeric G-quadruplex DNA in presence of sodium ion.
Data set [11] relates to Quadruplex DNA. In words: Binding affinity to Bcl2 G-quadruplex DNA (unknown origin) assessed as red shift at 15 uM after 5 mins by UV-Visible absorbance titration method. The format is nucleic-acid assay.
Data set [12] has as its system Quadruplex DNA. In words: Binding affinity to c-Myc G-quadruplex DNA (unknown origin) assessed as emission maximum at 5 uM after 5 mins by fluorescence titration method (reference value: 559 nanometer). The format is nucleic-acid assay.
Data set [13] relates to Quadruplex DNA. In words: Binding affinity to c-Myc G-quadruplex DNA (unknown origin) assessed as compound fluorescence life time at 5 uM after 5 mins by fluorescence titration method (reference value: 3.626 nanoseconds). The format is nucleic-acid assay.
The nature of data set [14]: Drug uptake in human HepG2 cell nucleus at 10 uM after 2.5 hrs by confocal microscopic method. As to conditions: hepg2, 2.5 h. The format is ADME, subcellular.
Data set [15] is described as follows: Drug uptake in DNase-1 treated human HepG2 cell nucleus at 10 uM after 2.5 hrs by confocal microscopic method. The format is ADME, subcellular. As to conditions: hepg2, 2.5 h.
Data set [16] concerns Quadruplex DNA. Briefly: Binding affinity to Bcl2 G-quadruplex DNA (unknown origin) assessed as enhanced fluorescence ratio at 5 uM after 5 mins by fluorescence titration assay relative to control. The format is nucleic-acid assay.
The subject of data set [17] is Quadruplex DNA. In words: Binding affinity to human telomeric G-quadruplex DNA assessed as absorption maximum at 5 uM after 5 mins in presence of potassium ion by fluorescence titration method (reference value: 405 nanometer). The format is nucleic-acid assay.
Data set [18] relates to dsDNA. In words: Binding affinity to 26-mer duplex DNA (unknown origin) assessed as hyperchromicity at 15 uM after 5 mins by UV-Visible absorbance titration method. The format is nucleic-acid assay.
The subject of data set [19] is Quadruplex DNA. In words: Binding affinity to human telomeric G-quadruplex DNA assessed as enhanced fluorescence time at 5 uM after 5 mins in presence of potassium ion by fluorescence titration assay relative to control. The format is nucleic-acid assay.
Data set [20] has as its system Quadruplex DNA. Briefly: Binding affinity to Bcl2 G-quadruplex DNA (unknown origin) assessed as hyperchromicity at 15 uM after 5 mins by UV-Visible absorbance titration method. The format is nucleic-acid assay.
The test system of data set [21] is Calf thymus DNA. Briefly: Binding affinity to calf thymus DNA assessed as hyperchromicity at 10 uM after 5 mins by UV-Visible absorbance titration method. The format is nucleic-acid assay. As to conditions: Bos taurus.
The test system of data set [22] is Quadruplex DNA. In words: Binding affinity to c-Kit G-quadruplex DNA (unknown origin) assessed as absorption maximum at 5 uM after 5 mins by fluorescence titration method (reference value: 453 nanometer). The format is nucleic-acid assay.
Data set [23] has as its system Quadruplex DNA. Briefly: Binding affinity to human telomeric G-quadruplex DNA assessed as emission maximum at 5 uM after 5 mins in presence of potassium ion by fluorescence titration method (reference value: 584 nanometer). The format is nucleic-acid assay.
The test system of data set [24] is Quadruplex DNA. Briefly: Binding affinity to human telomeric G-quadruplex DNA assessed as red shift at 10 uM after 5 mins in presence of sodium ion by UV-Visible absorbance titration method. The format is nucleic-acid assay.
For data set [25], the system named is dsDNA. In words: Binding affinity to 26-mer duplex DNA (unknown origin) assessed as absorption maximum at 5 uM after 5 mins by fluorescence titration method (reference value: 453 nanometer). The format is nucleic-acid assay.
Data set [26] relates to Quadruplex DNA. In words: Binding affinity to c-Kit G-quadruplex DNA (unknown origin) assessed as hyperchromicity at 10 uM after 5 mins by UV-Visible absorbance titration method. The format is nucleic-acid assay.
In data set [27] the test system is Calf thymus DNA. In words: Binding affinity to calf thymus DNA assessed as absorption maximum at 5 uM after 5 mins by fluorescence titration method (reference value: 453 nanometer). The format is nucleic-acid assay. The note with it: Bos taurus.
The test system of data set [28] is Quadruplex DNA. In words: Binding affinity to Bcl2 G-quadruplex DNA (unknown origin) assessed as emission maximum at 5 uM after 5 mins by fluorescence titration method (reference value: 584 nanometer). The format is nucleic-acid assay.
Data set [29] has as its system Quadruplex DNA. In words: Binding affinity to human telomeric G-quadruplex DNA assessed as hyperchromicity at 10 uM after 5 mins in presence of sodium ion by UV-Visible absorbance titration method. The format is nucleic-acid assay.
The nature of data set [30]: Drug uptake in RNase-A treated human HepG2 cell nucleus at 3 uM after 30 mins by H33258.staining based confocal microscopic method. The format is ADME, subcellular. The note with it: hepg2, 0.5 h.
The test system of data set [31] is Quadruplex DNA. In words: Binding affinity to Bcl2 G-quadruplex DNA (unknown origin) assessed as compound fluorescence life time at 5 uM after 5 mins by fluorescence titration method (reference value: 0.192 nanoseconds). The format is nucleic-acid assay.
The test system of data set [32] is Quadruplex DNA. In words: Binding affinity to human telomeric G-quadruplex DNA assessed as emission maximum at 5 uM after 5 mins in presence of sodium ion by fluorescence titration method (reference value: 584 nanometer). The format is nucleic-acid assay.
Data set [33] has as its system Quadruplex DNA. Briefly: Binding affinity to c-Myc G-quadruplex DNA (unknown origin) assessed as hyperchromicity at 10 uM after 5 mins by UV-Visible absorbance titration method. The format is nucleic-acid assay.
Data set [34] concerns Quadruplex DNA. Briefly: Binding affinity to c-Kit G-quadruplex DNA (unknown origin) assessed as red shift at 10 uM after 5 mins by UV-Visible absorbance titration method. The format is nucleic-acid assay.
Data set [35] has as its system HepG2. Briefly: Induction of morphological changes in human HepG2 cells assessed as debris formation at 5 uM after 24 hrs. The format is functional, cell-based.
The subject of data set [36] is Quadruplex DNA. Briefly: Binding affinity to human telomeric G-quadruplex DNA assessed as compound fluorescence life time at 5 uM after 5 mins in presence of potassium ion by fluorescence titration method (reference value: 0.192 nanoseconds). The format is nucleic-acid assay.
The test system of data set [37] is Quadruplex DNA. Briefly: Binding affinity to human telomeric G-quadruplex DNA assessed as absorption maximum at 5 uM after 5 mins in presence of potassium ion by fluorescence titration method (reference value: 453 nanometer). The format is nucleic-acid assay.
Data set [38] can be described thus: Drug uptake in RNase-A treated human HepG2 cell cytoplasm at 3 uM after 30 mins by H33258.staining based confocal microscopic method. The format is ADME, subcellular. As to conditions: hepg2, 0.5 h.
Data set [39] relates to Quadruplex DNA. Briefly: Binding affinity to Bcl2 G-quadruplex DNA (unknown origin) assessed as absorption maximum at 5 uM after 5 mins by fluorescence titration method (reference value: 453 nanometer). The format is nucleic-acid assay.

Active and inactive are the calls of the source. No cut-off for these calls is given here.

For `CCn1c2ccccc2c2cc(/C=C(\C#N)c3ccc[n+](C)c3)ccc21.[I-]`, the Time in the data set on dsDNA [1] is 2.43 nanoseconds; with Quadruplex DNA [5] it was 7.04 nanoseconds; in the data set with Quadruplex DNA [13], 4.12 nanoseconds. For the same compound, in the data set with HepG2 [2], the result was Active. In addition, the Drug uptake result in data set [3], in data set [14] and in data set [15] was “Not Active” in each case. In addition, the Activity in the data set with Quadruplex DNA [4] stood at 41.2%; in the data set with Quadruplex DNA [7], 17 nm; in the data set on Quadruplex DNA [9] it was 37.9%; with Quadruplex DNA [11], 29 nm; in the data set on Quadruplex DNA [12] it was 547 nm; in the data set on Quadruplex DNA [17], 428 nm. Further, the Activity with dsDNA [18] came to 27.7%; in the data set with Quadruplex DNA [20], 42.7%. Also, the fold change (FC) with Quadruplex DNA [6], in the data set on Quadruplex DNA [8] and with Quadruplex DNA [19] was 11.2 to 20.6 in each case. Besides, the Selectivity ratio in [10] is 1.33. In addition, in the data set on Quadruplex DNA [16], the Ratio was over 6.

As to `CCn1c2ccccc2c2cc(/C=C/c3sc4ccccc4[n+]3CC)ccc21.[I-]`, the Activity in the data set with Calf thymus DNA [21] came out at 40.1%; in the data set with Quadruplex DNA [22] it was 493 nm; in the data set with Quadruplex DNA [23], 579 nm; in the data set with Quadruplex DNA [24], 24 nm; in the data set on dsDNA [25], 470 nm; in the data set on Quadruplex DNA [26] it was 55.1%. Also, the Activity in the data set with Calf thymus DNA [27] is 477 nm; in the data set with Quadruplex DNA [28] it was 586 nm; with Quadruplex DNA [29] it was 48.4%; in the data set on Quadruplex DNA [32] it was 578 nm; with Quadruplex DNA [33], 55.6%; in the data set with Quadruplex DNA [34], 40 nm. Also, the results for the Activity in the data set on Quadruplex DNA [37] and with Quadruplex DNA [39] were 474 nm and 500 nm, respectively. Besides, the Drug uptake result in data set [30] and in data set [38] was “Active” throughout. Further, the values for the Time in the data set with Quadruplex DNA [31] and in the data set on Quadruplex DNA [36] were 2.17 nanoseconds and 2.09 nanoseconds, respectively. For the same compound, in the data set with HepG2 [35], the result was Active.
